Structure (SMILES)	melting point
CN(C)c1nc(-c2nccn2COCC[Si](C)(C)C)c2sccc2n1	131 to 132 °C
CCc1nc(-c2nncn2COCC[Si](C)(C)C)c2sccc2n1	< 100 °C
C[Si](C)(C)CCOCn1cc(-c2nc(Cl)nc3ccsc23)cn1	108 to 109 °C
CN(C)c1nc(-c2cnn(COCC[Si](C)(C)C)c2)c2sccc2n1	60 to 61 °C
Clc1nc(-c2ccco2)c2sccc2n1 [Example 3, 2-chloro-4-(2-furyl)thieno[3,2-d]pyrimidine]	146.9 to 147.6 °C
OC[C@H]1CCCN1c1nc(-c2cccs2)c2sccc2n1 [Example 4, (2R)-2-(2-hydroxymethylpyrrolidin-1-yl)-4-(2-thienyl)thieno[3,2-d]pyrimidine]	128.5 to 128.9 °C
FC(F)(F)c1nc(-c2ccco2)c2sccc2n1 [Example 11, 4-(2-furyl)-2-trifluoromethylthieno[3,2-d]pyrimidine]	147.6 to 148.8 °C
Cc1csc2c(-c3ccco3)nc(Cl)nc12 [Example 12, 2-chloro-4-(2-furyl)-7-methylthieno[3,2-d]pyrimidine]	164.4 to 164.9 °C
Cc1csc2c(-c3ccco3)nc(NCCO)nc12 [Example 16, 4-(2-furyl)-N-(2-hydroxyethyl)-7-methylthieno[3,2-d]pyrimidine-2-amine]	149.9 to 150.6 °C
Clc1nc(-c2cc3ccccc3s2)c2sccc2n1 [Example 17, 4-(2-benzothiophenyl)-2-chlorothieno[3,2-d]pyrimidine]	231 to 231.6 °C
OCCNc1nc(-c2cc3ccccc3s2)c2sccc2n1 [Example 20, 4-(2-benzothiophenyl)-N-(2-hydroxyethyl)thieno[3,2-d]pyrimidine-2-amine]	173.4 to 174.4 °C
CN(C)c1nc(-c2ccco2)c2scc(Br)c2n1 [Example 22, 7-bromo-N,N-dimethyl-4-(2-furyl)thieno[3,2-d]pyrimidine-2-amine]	118.7 to 119.5 °C
Clc1nc(-c2ccccn2)c2sccc2n1 [Example 24, 2-chloro-4-(2-pyridyl)thieno[3,2-d]pyrimidine]	209.2 to 209.5 °C
Clc1nc(-c2cnccn2)c2sccc2n1 [Example 30, 2-chloro-4-(2-pyrazinyl)thieno[3,2-d]pyrimidine]	183.2 to 183.8 °C
OCCNc1nc(-c2cnccn2)c2sccc2n1 [Example 34, N-(2-hydroxyethyl)-4-(2-pyrazinyl)thieno[3,2-d]pyrimidine-2-amine]	191.5 to 192.4 °C
CCSc1nc(-c2ccco2)c2sccc2n1 [Example 37, 2-ethylthio-4-(2-furyl)thieno[3,2-d]pyrimidine]	207 to 208 °C
OC[C@H]1CCCN1c1nc(-c2ccco2)c2sccc2n1 [Example 38, (2R)-4-(2-furyl)-2-(2-hydroxymethylpyrrolidin-1-yl)thieno[3,2-d]pyrimidine]	109 to 110 °C
CN(C)c1nc(-c2ccco2)c2scc([N+](=O)[O-])c2n1 [Example 44, N,N-dimethyl-4-(2-furyl)-7-nitrothieno[3,2-d]pyrimidine-2-amine]	182.8 to 183.8 °C
CN(C)c1nc(-c2ccco2)c2scc(N)c2n1 [Example 51, 7-amino-N,N-dimethyl-4-(2-furyl)thieno[3,2-d]pyrimidine-2-amine]	145.8 to 146.5 °C
CN(C)c1nc(-c2ccco2)c2scc(NC(=O)Nc3ccccc3)c2n1 [Example 55, N-(2-dimethylamino-4-(2-furyl)thieno[3,2-d]pyrimidine-7-yl)-N′-phenylurea]	244.4 to 244.9 °C
CC(=O)Nc1csc2c(-c3ccco3)nc(N(C)C)nc12 [Example 56, N-(2-dimethylamino-4-(2-furyl)thieno[3,2-d]pyrimidine-7-yl)acetamide]	210.9 to 211.3 °C
CN(C)c1nc(-c2ccco2)c2scc(NC(=O)c3ccccc3)c2n1 [Example 57, N-(2-dimethylamino-4-(2-furyl)thieno[3,2-d]pyrimidine-7-yl)benzamide]	192.2 to 192.8 °C
CS(=O)(=O)Nc1csc2c(-c3ccco3)nc(Cl)nc12 [Example 59, N-(2-chloro-4-(2-furyl)thieno[3,2-d]pyrimidine-7-yl)methanesulphonamide]	211.9 °C
CC(=O)CC(=O)N(C)c1nc(-c2ccco2)c2sccc2n1 [Example 60, N-(4-(2-furyl)thieno[3,2-d]pyrimidine-2-yl)-N-methyl-3-oxobutanamide]	108.3 to 108.6 °C
OC[C@H]1CCCN1c1nc(-c2ccco2)c2scc(Br)c2n1 [Example 72, (2R)-7-bromo-4-(2-furyl)-2-(2-hydroxymethylpyrrolidin-1-yl)thieno[3,2-d]pyrimidine]	75.4 to 76.3 °C
COc1ccc(CNc2nc(-c3ccco3)c3sccc3n2)cc1OC [Example 78, N-(3,4-dimethoxybenzyl)-4-(2-furyl)thieno[3,2-d]pyrimidine-2-amine]	155 to 156 °C
CC(=O)Nc1nc(-c2ccco2)c2sccc2n1 [Example 101, N-(4-(2-furyl)thieno[3,2-d]pyrimidin-2-yl)acetamide]	193.9 to 195 °C

Structure (SMILES)	melting point
Cc1cnc(-c2nc(Cl)nc3ccsc23)s1 [Example 102, 2-chloro-4-(5-methyl-2-thiazolyl)thieno[3,2-d]pyrimidine]	243 to 244 °C
Cc1nc(-c2nc(Cl)nc3ccsc23)sc1C [Example 103, 2-chloro-4-(4,5-dimethyl-2-thiazolyl)thieno[3,2-d]pyrimidine]	240 to 241 °C
CCc1nc(-c2ncc(-c3ccccc3)o2)c2sccc2n1 [Example 106, 2-ethyl-4-(5-phenyl-2-oxazolyl)thieno[3,2-d]pyrimidine]	170 to 170.5 °C
COc1ccc(CNc2nc(-c3nccs3)c3sccc3n2)cc1OC [Example 108, N-(3,4-dimethoxybenzyl)-4-(2-thiazolyl)thieno[3,2-d]pyrimidine-2-amine]	178.7 to 179.5 °C
Cc1ccc(-c2nc(Cl)nc3ccsc23)nc1 [Example 109, 2-chloro-4-(5-methyl-2-pyridyl)thieno[3,2-d]pyrimidine]	221 to 222 °C
C=CCNc1nc(-c2nccs2)c2sccc2n1 [Example 112, N-allyl-4-(2-thiazolyl)thieno[3,2-d]pyrimidine-2-amine]	128 to 129 °C
CC(=O)Nc1nc(-c2nccs2)c2sccc2n1 [Example 116, N-(4-(2-thiazolyl)thieno[3,2-d]pyrimidin-2-yl)acetamide]	242.6 to 243.9 °C
c1coc(-c2nc(Cc3cccs3)nc3ccsc23)c1 [Example 117, 4-(2-furyl)-2-(2-thienylmethyl)thieno[3,2-d]pyrimidine]	149 °C
CCc1nc(-c2nc(CC)nc3ccsc23)c2sccc2n1 [Example 119, 2-ethyl-4-(2-ethylthieno[3,2-d]pyrimidin-4-yl)thieno[3,2-d]pyrimidine]	179 °C
CCc1nc(-c2nc3ccccc3s2)c2sccc2n1 [Example 122, 4-(2-benzothiazolyl)-2-ethylthieno[3,2-d]pyrimidine]	131 °C
c1csc(-c2nc(-c3nccs3)c3sccc3n2)c1 [Example 153, 4-(2-thiazolyl)-2-(2-thienyl)thieno[3,2-d]pyrimidine]	221.9 °C
NC(=O)c1nc(-c2ccco2)c2sccc2n1 [Example 155, 4-(2-furyl)thieno[3,2-d]pyrimidine-2-carboxamide]	300 °C (dec.)
Clc1nc(-c2ccsc2)c2sccc2n1 [Example 156, 2-chloro-4-(3-thienyl)thieno[3,2-d]pyrimidine]	117.7 to 118.2 °C
CN(C)c1nc(-c2ccsc2)c2sccc2n1 [Example 157, N,N-dimethyl-4-(3-thienyl)thieno[3,2-d]pyrimidine-2-amine]	119 to 119.4 °C
Clc1nc(-c2ccccc2)c2sccc2n1 [Example 158, 2-chloro-4-phenylthieno[3,2-d]pyrimidine]	146.5 to 147.2 °C
CN(C)c1nc(-c2ccccc2)c2sccc2n1 [Example 159, N,N-dimethyl-4-phenylthieno[3,2-d]pyrimidine-2-amine]	112.9 to 114.1 °C
Clc1nc(-c2ccoc2)c2sccc2n1 [Example 160, 2-chloro-4-(3-furyl)thieno[3,2-d]pyrimidine]	129.3 to 129.9 °C
O=[N+]([O-])c1cc2nc(Cl)nc(-c3ccco3)c2s1 [Example 162, 2-chloro-4-(2-furyl)-6-nitrothieno[3,2-d]pyrimidine]	204 to 204.9 °C
CCOC(=O)Cn1ccnc1-c1nc(N(C)C)nc2ccsc12 [Example 177, N,N-dimethyl-4-((1-ethoxycarbonylmethyl)-1H-imidazol-2-yl)thieno[3,2-d]pyrimidine-2-amine]	209 to 210 °C
CN(C)c1nc(-c2nccn2CCO)c2sccc2n1 [Example 178, N,N-dimethyl-4-(1-(2-hydroxyethyl)-1H-imidazol-2-yl)thieno[3,2-d]pyrimidine-2-amine]	162.2 to 164.9 °C
CCc1nc(-c2nccn2COC)c2sccc2n1 [Example 179, 2-ethyl-4-(1-methoxymethyl-1H-imidazol-2-yl)thieno[3,2-d]pyrimidine]	69 to 70 °C
Cn1nccc1-c1nc(Cl)nc2ccsc12 [Example 182, 2-chloro-4-(1-methyl-1H-pyrazol-5-yl)thieno[3,2-d]pyrimidine]	141 to 142 °C
CN(C)c1nc(-c2ccnn2C)c2sccc2n1 [Example 184, N,N-dimethyl-4-(1-methyl-1H-pyrazol-5-yl)thieno[3,2-d]pyrimidine-2-amine]	126.5 to 127 °C
CN(C)c1nc(-c2cnn(C)c2)c2sccc2n1 [Example 186, N,N-dimethyl-4-(1-methyl-1H-pyrazol-4-yl)thieno[3,2-d]pyrimidine-2-amine]	175.4 to 175.9 °C
CCc1nc(-c2nncn2C)c2sccc2n1 [Example 187, 2-ethyl-4-(4-methyl-4H-1,2,4-triazol-3-yl)thieno[3,2-d]pyrimidine]	110.2 to 111.4 °C
CCc1nc(-c2ccco2)c2sc(C)cc2n1 [Example 188, 2-ethyl-4-(2-furyl)-6-methylthieno[3,2-d]pyrimidine]	104.7 to 104.8 °C

From patent US7384949B2, “Thieno(3,2-d)pyrimidines and furano(3,2-d)pyrimidines and their use as purinergic receptor antagonists” (Vernalis Research Limited, priority 2001, dated 2008)
